Patent US7057052B2, “Heterocyclic quinones as pharmaceutical agents” (Duke University, priority 2002, dated 2006)

Legend:
Type in all cases: biochemical
Cdc25A = molecular target: T1, Cdc25A (Homo sapiens, UniProt P30304); assay: Cdc25A phosphatase inhibition screen at 50 μM; conditions: read-out: Percent Inhibition at 50 uM compound, Cdc25 A
T1 sequence (P30304 1-524): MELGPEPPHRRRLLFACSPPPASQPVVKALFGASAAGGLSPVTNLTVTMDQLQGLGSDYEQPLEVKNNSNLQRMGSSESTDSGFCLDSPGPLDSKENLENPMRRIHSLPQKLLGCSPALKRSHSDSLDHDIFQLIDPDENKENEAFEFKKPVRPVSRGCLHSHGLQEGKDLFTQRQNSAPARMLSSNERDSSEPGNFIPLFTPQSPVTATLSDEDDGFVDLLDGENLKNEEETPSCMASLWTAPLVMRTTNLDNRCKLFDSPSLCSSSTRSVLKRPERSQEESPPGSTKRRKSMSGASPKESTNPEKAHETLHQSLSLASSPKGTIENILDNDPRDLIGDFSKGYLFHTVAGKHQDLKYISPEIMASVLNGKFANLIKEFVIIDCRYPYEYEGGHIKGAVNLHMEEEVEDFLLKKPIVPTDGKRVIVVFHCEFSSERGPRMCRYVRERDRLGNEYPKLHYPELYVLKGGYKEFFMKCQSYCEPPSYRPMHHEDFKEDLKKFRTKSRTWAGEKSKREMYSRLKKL
Protocol: (§1) Using procedures known to those skilled in the art, the compounds listed in Table 3 were screened against Cdc25A, Cdc25B, and Cdc25C at 50 μM. […] To analyze these effects further, the compounds were then screened against Cdc25B in a 3 pt. IC-50, using 1, 7 and 50 μM. Several of the compounds were also screened with an 8 pt. IC-50 process, using 0.1–10 μM, allowing determination of Hill slopes.

Cdc25B = molecular target: T2, Cdc25B (Homo sapiens, UniProt P30305); assay: Cdc25B phosphatase inhibition (50 μM screen, 3 pt. and 8 pt. IC-50); conditions: for IC50: Cdc25B, 3 pt. IC-50 using 1, 7 and 50 μM, read-out: IC50 (3 pt); for inhibition at 50 µM: read-out: Percent Inhibition at 50 uM compound, Cdc25 B
T2 sequence (P30305 1-580): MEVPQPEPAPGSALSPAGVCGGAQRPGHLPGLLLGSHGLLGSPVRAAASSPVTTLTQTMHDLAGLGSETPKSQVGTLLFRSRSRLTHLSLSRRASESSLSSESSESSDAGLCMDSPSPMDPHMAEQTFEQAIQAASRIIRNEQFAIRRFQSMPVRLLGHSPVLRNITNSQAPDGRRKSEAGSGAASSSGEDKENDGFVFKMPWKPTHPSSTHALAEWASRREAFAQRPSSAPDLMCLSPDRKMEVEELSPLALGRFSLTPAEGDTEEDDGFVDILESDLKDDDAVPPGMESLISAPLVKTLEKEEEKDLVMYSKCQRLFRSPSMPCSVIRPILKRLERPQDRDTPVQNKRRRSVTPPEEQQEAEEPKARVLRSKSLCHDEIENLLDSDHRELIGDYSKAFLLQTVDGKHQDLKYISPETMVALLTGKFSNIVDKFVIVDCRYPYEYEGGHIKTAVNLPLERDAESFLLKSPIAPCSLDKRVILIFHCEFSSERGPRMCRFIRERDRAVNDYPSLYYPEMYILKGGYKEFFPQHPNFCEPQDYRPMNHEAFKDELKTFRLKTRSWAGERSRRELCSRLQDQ
Protocol: as §1

Cdc25C = molecular target: T3, Cdc25C (Homo sapiens, UniProt P30307); assay: Cdc25C phosphatase inhibition screen at 50 μM; conditions: read-out: Percent Inhibition at 50 uM compound, Cdc25 C
T3 sequence (P30307 1-473): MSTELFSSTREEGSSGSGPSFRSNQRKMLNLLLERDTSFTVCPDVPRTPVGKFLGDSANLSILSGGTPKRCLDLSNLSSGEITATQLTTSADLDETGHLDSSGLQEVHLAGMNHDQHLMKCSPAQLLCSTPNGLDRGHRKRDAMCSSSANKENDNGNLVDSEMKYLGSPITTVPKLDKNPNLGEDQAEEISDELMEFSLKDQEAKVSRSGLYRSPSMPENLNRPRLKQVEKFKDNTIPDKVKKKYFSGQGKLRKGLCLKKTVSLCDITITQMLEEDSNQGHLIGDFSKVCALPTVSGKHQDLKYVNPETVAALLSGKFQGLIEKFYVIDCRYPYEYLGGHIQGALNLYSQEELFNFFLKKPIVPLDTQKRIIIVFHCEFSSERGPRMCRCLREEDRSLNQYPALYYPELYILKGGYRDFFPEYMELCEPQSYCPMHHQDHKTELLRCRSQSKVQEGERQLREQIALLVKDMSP
Protocol: as §1

Structure (SMILES): CC1(c2[nH]c3ccccc3c2C2=C(O)C(=O)C=C(O)C2=O)CC1 [2G, 2,5-dihydroxy-3-[2-(1-methylcycloproyl)-1H-indol-3-yl]-[1,4]-benzoquinone]
- inhibition at 50 µM (Cdc25A): 49%
- IC50 (Cdc25B): 3.6 µM
- inhibition at 50 µM (Cdc25B): 17%
- inhibition at 50 µM (Cdc25C): 0%

Structure (SMILES): COc1cccc2c(C3=C(O)C(=O)C=C(O)C3=O)c[nH]c12 [7A, 2,5-dihydroxy-3-(7-methoxy-1H-indol-3-yl)-[1,4]-benzoquinone]
- inhibition at 50 µM (Cdc25A): 36%
- IC50 (Cdc25B): 79.5 µM
- inhibition at 50 µM (Cdc25B): 15%
- inhibition at 50 µM (Cdc25C): 13%

Structure (SMILES): O=C1C=C(O)C(=O)C(c2c[nH]c3cc(OCc4ccccc4)ccc23)=C1O [5C, 2,5-dihydroxy-3-(6-benzyloxy-1H-indol-3-yl)-[1,4]-benzoquinone]
- inhibition at 50 µM (Cdc25A): 89%
- IC50 (Cdc25B): 1.7 µM
- inhibition at 50 µM (Cdc25B): 97%
- inhibition at 50 µM (Cdc25C): 92%

Structure (SMILES): Cc1[nH]c2ccccc2c1C1=C(O)C(=O)C=C(O)C1=O [2C, 2,5-dihydroxy-3-(2-methyl-1H-indol-3-yl)-[1,4]-benzoquinone]
- inhibition at 50 µM (Cdc25A): 35%
- IC50 (Cdc25B): 138 µM
- inhibition at 50 µM (Cdc25B): 9%
- inhibition at 50 µM (Cdc25C): 5%

Structure (SMILES): Cc1ccc2c(C3=C(O)C(=O)C=C(O)C3=O)c(C)[nH]c2c1 [7F, 2,5-dihydroxy-3-(2,6-dimethyl-1H-indol-3-yl)-[1,4]-benzoquinone]
- inhibition at 50 µM (Cdc25A): 46%
- IC50 (Cdc25B): 207 µM
- inhibition at 50 µM (Cdc25B): 16%
- inhibition at 50 µM (Cdc25C): 0%

Structure (SMILES): COc1ccc2[nH]c(C)c(C3=C(O)C(=O)C=C(O)C3=O)c2c1 [7D, 2,5-dihydroxy-3-(2-methyl-5-methoxy-1H-indol-3-yl)-[1,4]-benzoquinone]
- inhibition at 50 µM (Cdc25A): 0%
- IC50 (Cdc25B): 126 µM
- inhibition at 50 µM (Cdc25B): 0%
- inhibition at 50 µM (Cdc25C): 31%

Structure (SMILES): O=C1C=C(O)C(=O)C(c2c[nH]c3ccc(Br)cc23)=C1O [4D, 2,5-dihydroxy-3-(5-bromo-1H-indol-3-yl)-[1,4]-benzoquinone]
- inhibition at 50 µM (Cdc25A): 96%
- IC50 (Cdc25B): 2.4 µM
- inhibition at 50 µM (Cdc25B): 55%
- inhibition at 50 µM (Cdc25C): 26%

Structure (SMILES): O=C1C=C(O)C(=O)C(c2c[nH]c3c(OCc4ccccc4)cccc23)=C1O [7B, 2,5-dihydroxy-3-(7-benzyloxy-1H-indol-3-yl)-[1,4]-benzoquinone]
- inhibition at 50 µM (Cdc25A): 98%
- IC50 (Cdc25B): 1.6 µM
- inhibition at 50 µM (Cdc25B): 97%
- inhibition at 50 µM (Cdc25C): 85%

Structure (SMILES): COc1cc2[nH]cc(C3=C(O)C(=O)C=C(O)C3=O)c2cc1OC [8A, 2,5-dihydroxy-3-(5,6-dimethoxy-1H-indol-3-yl)-[1,4]-benzoquinone]
- inhibition at 50 µM (Cdc25A): 39%
- IC50 (Cdc25B): 117 µM
- inhibition at 50 µM (Cdc25B): 19%
- inhibition at 50 µM (Cdc25C): 20%

Structure (SMILES): C=CC(C)(C)c1[nH]c2ccccc2c1C1=C(O)C(=O)C=C(O)C1=O [3C, 2,5-dihydroxy-3-[2-(1,1-dimethyl-allyl)-1H-indol-3-yl]-[1,4]-benzoquinone]
- inhibition at 50 µM (Cdc25A): 40%
- IC50 (Cdc25B): 40.3 µM
- inhibition at 50 µM (Cdc25B): 0%
- inhibition at 50 µM (Cdc25C): 21%

Structure (SMILES): CCCc1cccc2c(C3=C(O)C(=O)C=C(O)C3=O)c[nH]c12 [6A, 2,5-dihydroxy-3-(7-propyl-1H-indol-3-yl)-[1,4]-benzoquinone]
- inhibition at 50 µM (Cdc25A): 93%
- IC50 (Cdc25B): 14.1 µM
- inhibition at 50 µM (Cdc25B): 23%
- inhibition at 50 µM (Cdc25C): 79%

Structure (SMILES): O=C1C=C(O)C(=O)C(c2c[nH]c3ccc(Cl)cc23)=C1O [4C, 2,5-dihydroxy-3-(5-chloro-1H-indol-3-yl)-[1,4]-benzoquinone]
- inhibition at 50 µM (Cdc25A): 95%
- IC50 (Cdc25B): 2.3 µM
- inhibition at 50 µM (Cdc25B): 32%
- inhibition at 50 µM (Cdc25C): 45%

Structure (SMILES): O=C1C=C(O)C(=O)C(c2c[nH]c3c(-c4ccccc4)cccc23)=C1O [6H, 2,5-dihydroxy-3-(7-phenyl-1H-indol-3-yl)-[1,4]-benzoquinone]
- inhibition at 50 µM (Cdc25A): 98%
- IC50 (Cdc25B): 1.4 µM
- inhibition at 50 µM (Cdc25B): 92%
- inhibition at 50 µM (Cdc25C): 91%
